Experimental data reported in patent US9428492B2, “Secondary alcohol substituted triazoles as PDE10 inhibitors” (Merck Sharp & Dohme Corp., priority 2012, dated 2016).
Where two headings read alike, the source gives them in different places.

What was measured:
[1] = target: CYP3A4 (Homo sapiens (Human), UniProt P08684); assay: time-dependent inhibition (TDI) of CYP3A4; assay type: in vitro ADME; conditions: for time-dependent inhibition (TDI) of the CYP3A4 enzyme: result in words
[2] = target: CYP2C9 (Homo sapiens (Human), UniProt P11712); assay: reversible inhibition of CYP2C9; assay type: in vitro ADME
[3] = target: human PDE10A2 (Homo sapiens (Human), UniProt Q9Y233); assay: PDE10 fluorescence polarization (IMAP FP) inhibition assay; assay type: biochemical
Procedure: The activity of the compounds in accordance with the present invention as PDE10 inhibitors may be readily determined without undue experimentation using a fluorescence polarization (FP) methodology that is well known in the art (Huang, W., et al., J. Biomol Screen, 2002, 7: 215).
In a typical experiment the PDE10 inhibitory activity of the compounds of the present invention was determined in accordance with the following experimental method. PDE10A2 was amplified from human fetal brain cDNA (Clontech, Mountain View, Calif.) using a forward primer corresponding to nucleotides 56-77 of human PDE10A2 (Accession No. AF127480, Genbank Identifier 4894716), containing a Kozak consensus sequence, and a reverse primer corresponding to nucleotides 2406-2413 of human PDE10A2 (Accession No. AF127480, Genbank Identifier 4894716). Amplification with Easy-A polymerase (Stratagene, La Jolla, Calif.) was 95° C. for 2 minutes followed by thirty three cycles of 95° C. for 40 seconds, 55° C. for 30 seconds, and 72° C. for 2 minutes 48 seconds. Final extension was 72° C. for 7 minutes. The PCR product was TA cloned into pcDNA3.2-TOPO (Invitrogen, Carlsbad, Calif.) according to standard protocol. AD293 cells with 70-80% confluency were transiently transfected with human PDE10A2/pcDNA3.2-TOPO using Lipofectamine 2000 according to manufacturer specifications (Invitrogen, Carlsbad, Calif.). Cells were harvested 48 hours post-transfection and lysed by sonication (setting 3, 10×5 sec pulses) in a buffer containing 20 mM HEPES, 1 mM EDTA and protease inhibitor cocktail (Roche). Lysate was collected by centrifugation at 75,000×g for 20 minutes. Supernatant containing the cytoplasmic fraction was used for evaluation of PDE10A2 activity. The fluorescence polarization assay for cyclic nucleotide phosphodiesterases was performed using an IMAP® FP kit supplied by Molecular Devices, Sunnyvale, Calif. (product # R8139). IMAP® technology has been applied previously to phosphodiesterase assays (Huang, W., et al., J. Biomol Screen, 2002, 7: 215). Assays were performed at room temperature in 384-well microtiter plates with an incubation volume of 20.2 μL. Solutions of test compounds were prepared in DMSO and serially diluted with DMSO to yield 8 μL of each of 10 solutions differing by 3-fold in concentration, at 32 serial dilutions per plate. […] 0% of inhibition is determined by using DMSO (1% final concentrations).
A Labcyte Echo 555 (Labcyte, Sunnyvale, Calif.) is used to dispense 200 nL from each well of the titration plate to the 384 well assay plate. A solution of enzyme (1/1600 dilution from aliquots; sufficient to produce 20% substrate conversion) and a separate solution of FAM-labeled cAMP PDE from Molecular Devices (product # R7506), at a final concentration of 50 nM are made in the assay buffer (10 mM Tris HCl, pH 7.2, 10 mM MgCl2, 0.05% NaN3 0.01% Tween-20, and 1 mM DTT). The enzyme and the substrate are then added to the assay plates in two consecutive additions of 10 μL, and then shaken to mix. The reaction is allowed to proceed at room temperature for 30 minutes. […] The enzymatic reaction is stopped by addition of 60 μL of the binding solution to each well of the assay plates and the plates are sealed and shaken for 10 seconds. The plate was incubated at room temperature for at least one hour prior to determining the fluorescence polarization (FP). The parallel and perpendicular fluorescence of each well of the plate was measured using a Perkin Elmer EnVision™ plate reader (Waltham, Mass.).
Fluorescence polarization (mP) was calculated from the parallel (S) and perpendicular (P) fluorescence of each sample well and the analogous values for the median control well, containing only substrate (So and Po), using the following equation: Polarization (mP)=1000*(S/So−P/Po)/(S/So+P/Po).
Dose-inhibition profiles for each compound were characterized by fitting the mP data to a four-parameter equation given below.

[4] = comparison table with Compounds A, B, C, read-out: PDE10 Ki

Sequence of CYP2C9 (P11712 whole entry): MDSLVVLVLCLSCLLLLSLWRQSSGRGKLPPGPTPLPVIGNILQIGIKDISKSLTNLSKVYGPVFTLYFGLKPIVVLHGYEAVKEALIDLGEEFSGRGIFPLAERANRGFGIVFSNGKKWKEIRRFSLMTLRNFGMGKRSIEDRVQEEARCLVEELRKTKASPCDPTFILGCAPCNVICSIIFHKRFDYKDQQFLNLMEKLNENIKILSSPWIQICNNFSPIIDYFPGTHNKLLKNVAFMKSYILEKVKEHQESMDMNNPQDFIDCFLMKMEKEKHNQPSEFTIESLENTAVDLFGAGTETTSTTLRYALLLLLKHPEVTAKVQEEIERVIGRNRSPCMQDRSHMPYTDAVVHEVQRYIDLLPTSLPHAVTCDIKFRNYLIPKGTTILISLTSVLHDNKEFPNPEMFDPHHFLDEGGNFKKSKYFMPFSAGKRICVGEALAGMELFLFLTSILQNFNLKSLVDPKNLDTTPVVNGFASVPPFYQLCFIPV
Sequence of human PDE10A2 (Q9Y233 267-1055): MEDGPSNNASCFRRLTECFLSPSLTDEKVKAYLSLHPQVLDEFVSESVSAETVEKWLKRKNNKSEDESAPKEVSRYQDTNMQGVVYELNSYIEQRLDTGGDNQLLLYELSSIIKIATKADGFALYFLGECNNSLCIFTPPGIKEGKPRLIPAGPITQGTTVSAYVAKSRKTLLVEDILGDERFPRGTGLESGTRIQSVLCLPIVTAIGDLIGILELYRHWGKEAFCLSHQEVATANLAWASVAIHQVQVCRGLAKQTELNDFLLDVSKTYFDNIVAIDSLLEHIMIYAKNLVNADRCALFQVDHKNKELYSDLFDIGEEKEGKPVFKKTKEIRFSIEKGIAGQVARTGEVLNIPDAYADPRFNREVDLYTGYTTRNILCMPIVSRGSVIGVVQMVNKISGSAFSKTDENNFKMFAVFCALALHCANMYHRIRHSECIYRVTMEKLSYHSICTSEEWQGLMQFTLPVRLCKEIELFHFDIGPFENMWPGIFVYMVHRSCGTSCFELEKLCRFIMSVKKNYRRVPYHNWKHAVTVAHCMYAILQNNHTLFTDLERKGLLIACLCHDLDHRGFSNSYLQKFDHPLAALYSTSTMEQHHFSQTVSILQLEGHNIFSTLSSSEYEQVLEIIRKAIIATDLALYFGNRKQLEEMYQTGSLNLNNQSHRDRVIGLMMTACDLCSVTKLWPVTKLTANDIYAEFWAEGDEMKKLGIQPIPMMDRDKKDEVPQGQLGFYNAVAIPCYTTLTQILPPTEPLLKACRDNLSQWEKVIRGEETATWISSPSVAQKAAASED
Sequence of CYP3A4 (P08684 whole entry): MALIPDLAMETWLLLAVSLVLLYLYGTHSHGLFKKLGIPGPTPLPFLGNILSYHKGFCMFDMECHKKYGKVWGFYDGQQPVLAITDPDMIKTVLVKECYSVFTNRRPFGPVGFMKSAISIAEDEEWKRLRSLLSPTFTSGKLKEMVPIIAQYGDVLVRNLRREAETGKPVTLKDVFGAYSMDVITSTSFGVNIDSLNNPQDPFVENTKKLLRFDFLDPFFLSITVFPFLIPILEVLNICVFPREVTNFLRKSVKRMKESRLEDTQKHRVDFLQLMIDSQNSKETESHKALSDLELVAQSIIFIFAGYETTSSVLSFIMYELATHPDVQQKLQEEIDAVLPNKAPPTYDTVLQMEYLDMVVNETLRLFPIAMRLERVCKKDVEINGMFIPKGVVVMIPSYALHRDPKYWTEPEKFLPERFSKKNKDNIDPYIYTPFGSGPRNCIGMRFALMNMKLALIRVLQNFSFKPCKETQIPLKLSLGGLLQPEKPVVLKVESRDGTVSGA

With Cc1nc(N2CC(c3nc4ccccc4n3C)C2)cc(-n2nc(C)nc2C(O)C(F)(F)F)n1 (single isomer, unassigned) [Example 3b, 2,2,2-trifluoro-1-(3-methyl-1-(2-methyl-6-(3-(1-methyl-1H-benzo[d]imidazol-2-yl)azetidin-1-yl)pyrimidin-4-yl)-1H-1,2,4-triazol-5-yl)ethanol] as the molecule, how does the “TDI CYP3A4 shift ratio” value [1] read?
The value was 1.

What about the “time-dependent inhibition (TDI) of the CYP3A4 enzyme” value [1] of the same molecule?
The value was “do not exhibit TDI of CYP3A4”.

And the IC50 [2]?
Its IC50 is over 50000 nM.

And the Ki [3, 4]?
Its Ki is 0.06 nM.

And the Ki ([3]; read-out: PDE10a Ki)?
The Ki was 0.06 nM.

Which “TDI CYP3A4 shift ratio” value [1] does the source give for CCC(O)c1nc(C)nn1-c1cc(N2CC(c3nc4ccccc4n3C)C2)nc(C)n1 (single isomer, unassigned) [Example 4b, 1-(3-methyl-1-(2-methyl-6-(3-(1-methyl-1H-benzo[d]imidazol-2-yl)azetidin-1-yl)pyrimidin-4-yl)-1H-1,2,4-triazol-5-yl)propan-1-ol] here?
The value was 1.

And the “time-dependent inhibition (TDI) of the CYP3A4 enzyme” value [1]?
Its value is “do not exhibit TDI of CYP3A4”.

What about the IC50 [2] of the same molecule?
The IC50 was over 50000 nM.

And the Ki [3, 4]?
Its Ki is 0.51 nM.

And the Ki ([3]; read-out: PDE10a Ki)?
The Ki was 0.41 nM.

What does the source list for CCC(O)c1nc(C)nn1-c1cc([C@@H]2C[C@H]2c2nc3ccccc3n2C)nc(C)n1 (single isomer, unassigned) [Example 19a]?
time-dependent inhibition (TDI) of the CYP3A4 enzyme [1]: do not exhibit TDI of CYP3A4; IC50 [2]: > 50000 nM

Which Ki ([3]; read-out: PDE10a Ki) does the source give for Cc1nc(C(C)O)n(-c2cc(N3CC(c4nc5ccccc5n4C)C3)nc(C3CC3)n2)n1 (centres unmarked) [Example 10, 1-(1-(2-cyclopropyl-6-(3-(1-methyl-1H-benzo[d]imidazol-2-yl)azetidin-1-yl)pyrimidin-4-yl)-3-methyl-1H-1,2,4-triazol-5-yl)ethanol] here?
Its Ki is 0.21 nM.

For Cc1nc(N2CC(c3nc4ccccc4n3C)C2)cc(-n2nc(C)nc2C(O)CF)n1 (centres unmarked) [Example 12, 2-fluoro-1-(3-methyl-1-(2-methyl-6-(3-(1-methyl-1H-benzo[d]imidazol-2-yl)azetidin-1-yl)pyrimidin-4-yl)-1H-1,2,4-triazol-5-yl)ethanol], which Ki ([3]; read-out: PDE10a Ki) is on record?
Its Ki is 0.34 nM.

For Cc1nc([C@@H]2C[C@H]2c2nc3ccccc3n2C)cc(-n2nc(C)nc2[C@H](O)c2ccccc2)n1 [Example 15, (R)-(3-methyl-1-(2-methyl-6-((1R,2R)-2-(1-methyl-1H-benzo[d]imidazol-2-yl)cyclopropyl)pyrimidin-4-yl)-1H-1,2,4-triazol-5-yl)(phenyl)methanol], which Ki ([3]; read-out: PDE10a Ki) is on record?
Its Ki is 0.09 nM.

For Cc1nc([C@@H]2C[C@H]2c2nc3ccccc3n2C)cc(-n2nc(C)nc2[C@@H](O)c2ccccc2)n1 [Example 16, (S)-(3-methyl-1-(2-methyl-6-((1R,2R)-2-(1-methyl-1H-benzo[d]imidazol-2-yl)cyclopropyl)pyrimidin-4-yl)-1H-1,2,4-triazol-5-yl)(phenyl)methanol], which Ki ([3]; read-out: PDE10a Ki) is on record?
Its Ki is 0.62 nM.

With Cc1nc([C@H](C)O)n(-c2cc([C@@H]3C[C@H]3c3nc4ccccc4n3C)nc(C(F)(F)F)n2)n1 [Example 17, (S)-1-(3-methyl-1-(6-((1R,2R)-2-(1-methyl-1H-benzo[d]imidazol-2-yl)cyclopropyl)-2-(trifluoromethyl)pyrimidin-4-yl)-1H-1,2,4-triazol-5-yl)ethanol] as the molecule, how does the Ki ([3]; read-out: PDE10a Ki) read?
Its Ki is 2.8 nM.

For Cc1nc([C@H](C)O)n(-c2cc([C@@H]3C[C@H]3c3nc4ccccc4n3C)nc(C3CC3)n2)n1 [Example 18, (S)-1-(1-(2-cyclopropyl-6-((1R,2R)-2-(1-methyl-1H-benzo[d]imidazol-2-yl)cyclopropyl)pyrimidin-4-yl)-3-methyl-1H-1,2,4-triazol-5-yl)ethanol], which Ki ([3]; read-out: PDE10a Ki) is on record?
The Ki was 0.36 nM.

Which Ki ([3]; read-out: PDE10a Ki) does the source give for Cc1nc(C2C[C@H]2c2nc3ccccc3n2C)cc(-n2nc(C)nc2C(O)C(F)(F)F)n1 (stereo partly drawn) [Example 20, 2,2,2-trifluoro-1-(3-methyl-1-(2-methyl-6-((1R,2R)-2-(1-methyl-1H-benzo[d]imidazol-2-yl)cyclopropyl)pyrimidin-4-yl)-1H-1,2,4-triazol-5-yl)ethanol] here?
Its Ki is 0.55 nM.

How did the Ki ([3]; read-out: PDE10a Ki) turn out when Cc1nc([C@@H]2C[C@H]2c2nc3ccccc3n2C)cc(-n2nc(C)nc2C(O)C(C)C)n1 (stereo partly drawn) [Example 21, 2-methyl-1-(3-methyl-1-(2-methyl-6-((1R,2R)-2-(1-methyl-1H-benzo[d]imidazol-2-yl)cyclopropyl)pyrimidin-4-yl)-1H-1,2,4-triazol-5-yl)propan-1-ol] was run?
Its Ki is 0.47 nM.
